Earlier results in PMC9516332 (Frontiers in Oncology, 2022).
Like-named read-outs stand apart in the source and are kept apart here.

Columns and labels:
Settings in all cases: cited from earlier work
[1] = target: T1, panel of 255 wild-type kinases (Homo sapiens, UniProt O15111)
T1 sequence (O15111 1-745): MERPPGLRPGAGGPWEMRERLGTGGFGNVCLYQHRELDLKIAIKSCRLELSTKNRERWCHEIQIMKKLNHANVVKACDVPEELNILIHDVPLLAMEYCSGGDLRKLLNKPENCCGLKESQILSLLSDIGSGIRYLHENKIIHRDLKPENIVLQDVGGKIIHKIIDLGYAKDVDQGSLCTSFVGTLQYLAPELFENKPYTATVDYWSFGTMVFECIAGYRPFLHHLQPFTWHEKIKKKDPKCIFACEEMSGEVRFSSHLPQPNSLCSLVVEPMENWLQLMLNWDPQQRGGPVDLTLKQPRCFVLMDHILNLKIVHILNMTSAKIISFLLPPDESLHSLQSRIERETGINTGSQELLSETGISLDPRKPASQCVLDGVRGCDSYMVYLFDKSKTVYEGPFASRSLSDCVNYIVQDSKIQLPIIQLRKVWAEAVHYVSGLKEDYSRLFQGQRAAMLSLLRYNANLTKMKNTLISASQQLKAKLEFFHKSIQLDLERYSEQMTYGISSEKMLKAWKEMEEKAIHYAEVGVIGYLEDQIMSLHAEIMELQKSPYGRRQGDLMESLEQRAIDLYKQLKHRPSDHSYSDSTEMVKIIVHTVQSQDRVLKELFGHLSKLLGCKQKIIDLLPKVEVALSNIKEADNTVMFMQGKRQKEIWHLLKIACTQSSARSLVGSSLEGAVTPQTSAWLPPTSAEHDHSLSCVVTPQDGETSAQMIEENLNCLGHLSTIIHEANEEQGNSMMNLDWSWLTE

[2] = target: panel of 255 wild-type kinases (Homo sapiens, UniProt P04629)
[3] = target: panel of 255 wild-type kinases (Homo sapiens, UniProt P06493)
[4] = target: panel of 255 wild-type kinases (Homo sapiens, UniProt P07332)
[5] = target: panel of 255 wild-type kinases (Homo sapiens, UniProt P10721)
[6] = target: panel of 255 wild-type kinases (Homo sapiens, UniProt P19525)
[7] = target: panel of 255 wild-type kinases (Homo sapiens, UniProt P22694)
[8] = target: panel of 255 wild-type kinases (Homo sapiens, UniProt P49674)
[9] = target: panel of 255 wild-type kinases (Homo sapiens, UniProt Q06187)
[10] = target: panel of 255 wild-type kinases (Homo sapiens, UniProt Q13557)
[11] = target: T2, panel of 255 wild-type kinases (Homo sapiens, UniProt Q13976)
T2 sequence (Q13976 1-671): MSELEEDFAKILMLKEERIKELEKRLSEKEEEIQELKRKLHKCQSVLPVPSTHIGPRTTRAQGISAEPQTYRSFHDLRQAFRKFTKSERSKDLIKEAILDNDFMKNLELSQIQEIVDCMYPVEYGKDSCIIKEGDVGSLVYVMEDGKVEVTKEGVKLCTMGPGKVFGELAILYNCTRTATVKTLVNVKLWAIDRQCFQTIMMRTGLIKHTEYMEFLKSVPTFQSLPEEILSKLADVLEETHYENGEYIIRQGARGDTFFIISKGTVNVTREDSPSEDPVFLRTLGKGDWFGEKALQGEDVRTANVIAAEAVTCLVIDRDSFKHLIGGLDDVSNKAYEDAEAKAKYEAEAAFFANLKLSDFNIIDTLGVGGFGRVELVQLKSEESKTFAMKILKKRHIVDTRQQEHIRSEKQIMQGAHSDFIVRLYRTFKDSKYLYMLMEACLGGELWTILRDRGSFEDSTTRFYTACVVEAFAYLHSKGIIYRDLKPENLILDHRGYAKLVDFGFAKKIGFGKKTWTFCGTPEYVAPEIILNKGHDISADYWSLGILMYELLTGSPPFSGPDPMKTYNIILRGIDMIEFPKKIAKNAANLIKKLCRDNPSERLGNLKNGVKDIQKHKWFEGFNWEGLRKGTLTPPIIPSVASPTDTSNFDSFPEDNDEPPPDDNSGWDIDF

[12] = target: panel of 255 wild-type kinases (Homo sapiens, UniProt Q96GD4)
[13] = target: panel of 255 wild-type kinases (Homo sapiens, UniProt Q9H1R3)
[14] = kinase IKKα, 1 µmol/L single concentration, ref DOI: 10.1158/1535-7163.MCT-18-0877
[15] = kinase TRKA, 1 µmol/L single concentration, ref DOI: 10.1158/1535-7163.MCT-18-0877
[16] = CDC2/CycB1 kinase assay, 1 µmol/L single concentration, ref DOI: 10.1158/1535-7163.MCT-18-0877
[17] = kinase FES, 1 µmol/L single concentration, ref DOI: 10.1158/1535-7163.MCT-18-0877
[18] = kinase KIT, 1 µmol/L single concentration, ref DOI: 10.1158/1535-7163.MCT-18-0877
[19] = kinase PKR, 1 µmol/L single concentration, ref DOI: 10.1158/1535-7163.MCT-18-0877
[20] = kinase PKACβ, 1 µmol/L single concentration, ref DOI: 10.1158/1535-7163.MCT-18-0877
[21] = kinase CK1ε, 1 µmol/L single concentration, ref DOI: 10.1158/1535-7163.MCT-18-0877
[22] = BTK kinase assay, 1 µmol/L single concentration, ref DOI: 10.1158/1535-7163.MCT-18-0877
[23] = CaMK2δ kinase assay, 1 µmol/L single concentration, ref DOI: 10.1158/1535-7163.MCT-18-0877
[24] = kinase PGK, 1 µmol/L single concentration, ref DOI: 10.1158/1535-7163.MCT-18-0877
[25] = AurB kinase assay, 1 µmol/L single concentration, ref DOI: 10.1158/1535-7163.MCT-18-0877
[26] = kinase skMLCK, 1 µmol/L single concentration, ref DOI: 10.1158/1535-7163.MCT-18-0877

## CC#CC(=O)N1CCC[C@H]1c1nc(-c2ccc(C(=O)Nc3ccccn3)cc2)c2c(N)nccn12 [acalabrutinib]
[1]; [14]
  %-inhibition at 1 µmol/L, IKKα: -1.45%
[2]; [15]
  %-inhibition at 1 µmol/L, TRKA: 13%
[3]; [16]
  %-inhibition CDC2/CycB1: -0.397%
[4]; [17]
  %-inhibition at 1 µmol/L, FES: -6.35%
[5]; [18]
  %-inhibition at 1 µmol/L, KIT: 3%
[6]; [19]
  %-inhibition at 1 µmol/L, PKR: 7%
[7]; [20]
  %-inhibition at 1 µmol/L, PKACβ: -13%
[8]; [21]
  %-inhibition at 1 µmol/L, CK1ε: -10%
[9]; [22]
  %-inhibition BTK: 95%
[10]; [23]
  %-inhibition CaMK2δ: -3.53%
[11]; [24]
  %-inhibition at 1 µmol/L, PGK: -3.7%
[12]; [25]
  %-inhibition AurB: 11%
[13]; [26]
  %-inhibition at 1 µmol/L, skMLCK: -17%

## CCc1cc2c(cc1N1CCC(N3CCOCC3)CC1)C(C)(C)c1[nH]c3cc(C#N)ccc3c1C2=O [alectinib]
[1]; [14]
  %-inhibition at 1 µmol/L, IKKα: -0.856%
[2]; [15]
  %-inhibition at 1 µmol/L, TRKA: 62%
[3]; [16]
  %-inhibition CDC2/CycB1: 3.54%
[4]; [17]
  %-inhibition at 1 µmol/L, FES: 23%
[5]; [18]
  %-inhibition at 1 µmol/L, KIT: 0.373%
[6]; [19]
  %-inhibition at 1 µmol/L, PKR: 5.33%
[7]; [20]
  %-inhibition at 1 µmol/L, PKACβ: 2%
[8]; [21]
  %-inhibition at 1 µmol/L, CK1ε: 4.48%
[9]; [22]
  %-inhibition BTK: 4.39%
[10]; [23]
  %-inhibition CaMK2δ: 37%
[11]; [24]
  %-inhibition at 1 µmol/L, PGK: -1.53%
[12]; [25]
  %-inhibition AurB: 9%
[13]; [26]
  %-inhibition at 1 µmol/L, skMLCK: -11%

## COc1cc(N2CCC(N3CCN(C)CC3)CC2)ccc1Nc1ncc(Cl)c(Nc2ccccc2P(C)(C)=O)n1 [brigatinib]
[1]
  %-inhibition at 1 µmol/L, IKKα: -0.856%
[2]
  %-inhibition at 1 µmol/L, TRKA: 83%
[3]
  %-inhibition CDC2/CycB1: 61%
[4]
  %-inhibition at 1 µmol/L, FES: 100%
[5]
  %-inhibition at 1 µmol/L, KIT: 51%
[6]
  %-inhibition at 1 µmol/L, PKR: 14%
[7]
  %-inhibition at 1 µmol/L, PKACβ: 9%
[8]
  %-inhibition at 1 µmol/L, CK1ε: 0.661%
[9]
  %-inhibition BTK: 54%
[10]
  %-inhibition CaMK2δ: 101%
[11]
  %-inhibition at 1 µmol/L, PGK: 60%
[12]
  %-inhibition AurB: 46%
[13]
  %-inhibition at 1 µmol/L, skMLCK: -6%

## Cc1cc(Nc2ncc(Cl)c(Nc3ccccc3S(=O)(=O)C(C)C)n2)c(OC(C)C)cc1C1CCNCC1 [ceritinib]
[1]; [14]
  %-inhibition at 1 µmol/L, IKKα: -0.91%
[3]; [16]
  %-inhibition CDC2/CycB1: 2.5%
[4]; [17]
  %-inhibition at 1 µmol/L, FES: 99%
[6]; [19]
  %-inhibition at 1 µmol/L, PKR: -1%
[7]; [20]
  %-inhibition at 1 µmol/L, PKACβ: -11%
[8]; [21]
  %-inhibition at 1 µmol/L, CK1ε: 5%
[9]; [22]
  %-inhibition BTK: -1.88%
[10]; [23]
  %-inhibition CaMK2δ: 76%
[11]; [24]
  %-inhibition at 1 µmol/L, PGK: 38%
[12]; [25]
  %-inhibition AurB: 8%
[13]; [26]
  %-inhibition at 1 µmol/L, skMLCK: -9%
